Converted amounts (≈) assume the structure as drawn.
How the values were obtained:
[1] = biological target: T1, Programmed cell death protein 1/Programmed cell death 1 ligand 1 (Homo sapiens, UniProt Q9NZQ7); test: Inhibition of human PD1/PDL1 protein-protein interaction by HTRF assay; assay type: protein-complex assay
[2] = biological target: T1, Programmed cell death protein 1/Programmed cell death 1 ligand 1; test: Inhibition of human Fc-tagged PD1 N-terminal domain (Leu25 to Gln167 residues) expressed in HEK293 cells/human His-tagged PDL1 (Phe19 to Arg238 residues) expressed in HEK293 cells protein-protein interaction after 40 mins by APC-labeled anti-His antibody/Eu-labeled anti-human IgG based HTRF assay; assay type: cell-based
[3] = Solubility of the compound in water; assay type: physicochemical
[4] = system: MCF7; test: Cytotoxicity against human MCF7 cells assessed as reduction in cell viability measured after 48 hrs by MTT assay; assay type: functional, cell-based; details: MCF7, 48 h
[5] = system: A549; test: Cytotoxicity against human A549 cells assessed as reduction in cell viability measured after 48 hrs by MTT assay; assay type: functional, cell-based; details: A549, 48 h
[6] = system: B16-F10; test: Cytotoxicity against mouse B16/F10 cells assessed as reduction in cell viability measured after 48 hrs by MTT assay; assay type: functional, cell-based; details: B16-F10, 48 h
[7] = biological target: T1, Programmed cell death protein 1/Programmed cell death 1 ligand 1; test: Inhibition of human C-terminal Ig-Fc-tagged PD1 (Leu25 to Gln167 residues) expressed in HEK293 cells/human C-terminal epitope-His-tagged PDL1 (Phe19 to Arg238 residues) expressed in HEK293 cells protein-protein interaction preincubated for 15 mins with PDL1 followed by PD1 addition and measured after 15 mins by APC-labeled anti-His antibody/Eu-labeled anti-human IgG based HTRF assay; assay type: cell-based

T1 sequence (Q15116 whole entry, the tested form may be a part): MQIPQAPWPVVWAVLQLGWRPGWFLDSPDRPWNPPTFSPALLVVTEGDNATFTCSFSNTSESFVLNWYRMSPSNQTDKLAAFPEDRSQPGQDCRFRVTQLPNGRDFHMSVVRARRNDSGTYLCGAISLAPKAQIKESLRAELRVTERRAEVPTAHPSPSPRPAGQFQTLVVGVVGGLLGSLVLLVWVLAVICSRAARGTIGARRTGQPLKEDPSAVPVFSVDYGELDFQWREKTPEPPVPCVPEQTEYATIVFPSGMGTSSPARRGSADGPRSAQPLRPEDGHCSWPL
T1 sequence (Q9NZQ7 whole entry, the tested form may be a part): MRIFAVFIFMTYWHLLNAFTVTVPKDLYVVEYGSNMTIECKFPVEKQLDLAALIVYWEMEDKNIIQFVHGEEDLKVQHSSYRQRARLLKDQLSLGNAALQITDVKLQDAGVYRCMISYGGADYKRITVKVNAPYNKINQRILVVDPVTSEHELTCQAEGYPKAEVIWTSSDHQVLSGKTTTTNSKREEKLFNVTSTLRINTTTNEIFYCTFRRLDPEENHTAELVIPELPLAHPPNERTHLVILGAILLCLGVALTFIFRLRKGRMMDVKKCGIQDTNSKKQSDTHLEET

Structure (SMILES) | IC50 [1] | further results
Cc1c(COc2ccc3cc(CNCCO)ccc3c2)cccc1-c1ccccc1 | > 10000 nM | IC50 [2]: > 10000 nM
O=C(NC(Cc1cc(=O)[nH]c2ccccc12)C(=O)O)c1ccc(Cl)cc1 (centres undefined) [REBAMIPIDE] | – | solubility [3]: 7.6 µg/mL (≈ 20.5 µM)
Cc1c(COc2cc(OCc3cccc(C#N)c3)c(CN3C[C@@H](O)C[C@@H]3CO)cc2Cl)cccc1-c1ccc2c(c1)OCCO2 | 11.1 nM | IC50 [4]: 6600 nM; IC50 [5]: 4600 nM; IC50 [6]: 2400 nM
Cc1c(COc2cc(OCc3cccc(C#N)c3)c(CN[C@H](CO)C(=O)O)cc2Cl)cccc1-c1ccccc1 | 8 nM | IC50 [4]: > 10000 nM; IC50 [5]: > 10000 nM; IC50 [6]: > 10000 nM
COc1cc(NC(=O)c2cccc(-c3ccccc3)c2C)ccc1CN1CCN(C(C)=O)CC1 | – | IC50 [2]: > 10000 nM
Cc1c(COc2cc(OCc3ccnc(C#N)c3)c(CNC(C)(C)C(=O)O)cc2Cl)cccc1-c1ccc2ocnc2c1 | – | IC50 [7]: 10 nM
Cc1c(COc2cc(OCc3cccc(C#N)c3)c(CN[C@H](CO)C(=O)O)cc2Cl)cccc1-c1cccnc1 | 10 to 100 nM | –
Cc1c(COc2cc(OCc3cccc(C#N)c3)c(CN3CC[C@H](C(=O)O)C3)cc2Cl)cccc1-c1ccc2c(c1)OCCO2 | 7.9 nM | IC50 [4]: > 10000 nM; IC50 [5]: > 10000 nM; IC50 [6]: 10800 nM; IC50 [7]: 7.9 nM
CC(=O)NCCNCc1ccc2cc(OCc3cccc(-c4ccccc4)c3C)ccc2c1 | > 10000 nM | –
Cc1c(COc2cc(OCc3cccc(C#N)c3)c(CNC(C)(C)C(=O)O)cc2Cl)cccc1-c1cccnc1 | 10 to 100 nM | –
Cc1c(COc2cc(OCc3cccc(C#N)c3)c(CN3CCC(O)C3)cc2Cl)cccc1-c1ccc2c(c1)OCCO2 (centres undefined) | 12.9 nM | IC50 [4]: 4400 nM; IC50 [5]: 4200 nM; IC50 [6]: 2300 nM
Cc1c(COc2cc(OCc3cccc(C#N)c3)c(CN3C[C@@H](O)C[C@H]3C(=O)O)cc2Cl)cccc1-c1ccncc1 | > 100 nM | –
Cc1c(COc2cc(OCc3cccc(C#N)c3)c(CN3CCN(C)CC3)cc2Cl)cccc1-c1ccc2c(c1)OCCO2 | 225 nM | –
Cc1c(COc2cc(OCc3cccc(C#N)c3)c(CN3CCN(C(=O)OC(C)(C)C)CC3)cc2Cl)cccc1-c1ccc2c(c1)OCCO2 | > 1000 nM | –
Cc1c(COc2cc(OCc3cccc(C#N)c3)c(CN[C@@H](C(=O)O)[C@H](C)O)cc2Cl)cccc1-c1ccccc1 | 8.5 nM | –
Cc1c(Nc2cccc3cc(CNCCO)cnc23)cccc1-c1ccccc1 | – | IC50 [2]: < 10 nM
Cc1c(COc2ccc3cc(CN4C[C@@H](O)C[C@H]4C(=O)O)ccc3c2)cccc1-c1ccc2c(c1)OCCO2 | > 10000 nM | –
Cc1c(COc2cc(OCc3cccc(C#N)c3)c(/C=N/C(CS)C(=O)O)cc2Cl)cccc1-c1ccccc1 (centres undefined) | > 100 nM | –
Cc1c(COc2cc(OCc3cccc(C#N)c3)c(CN3CCCC[C@H]3C(=O)O)cc2Cl)cccc1-c1ccncc1 | > 100 nM | –
Cc1c(COc2cc(OCc3cccc(C#N)c3)c(CNCCO)cc2Cl)cccc1-c1ccncc1 | > 100 nM | –
Cc1c(/C=C/C(=O)c2cc(CN3CCN(C4CC4)CC3)ccc2O)cccc1-c1ccccc1 | > 20000 nM | –
CC(=O)N1CCN(Cc2ccc(O)c(C(=O)/C=C/c3cccc(-c4ccccc4)c3C)c2)CC1 | 14400 nM | –
Cc1c(COc2cc(OCc3cccc(C#N)c3)c(CN3CC[C@H](C(=O)O)C3)cc2Cl)cccc1-c1ccccc1 | 10 to 100 nM | –
CC(=O)N1CCN(Cc2ccc(O)c(C(=O)/C=C/c3cccc(-c4ccc5c(c4)OCCO5)c3C)c2)CC1 | > 20000 nM | –
Cc1c(COc2cc(OCc3cccc(C#N)c3)c(CNC(C)(C)C(=O)O)cc2Cl)cccc1-c1ccc2c(c1)OCCO2 | 25.2 nM | –
Cc1c(COc2cc(OCc3cccc(C#N)c3)c(CN3CC[C@@H](O)C3)cc2Cl)cccc1-c1ccc2c(c1)OCCO2 | 14.9 nM | –
Cc1c(COc2cc(OCc3cccc(C#N)c3)c(CN3CCNCC3)cc2Cl)cccc1-c1ccc2c(c1)OCCO2 | 233 nM | –
CC(=O)N1CCN(Cc2ccc3oc(-c4cccc(-c5ccccc5)c4F)cc(=O)c3c2)CC1 | > 10000 nM | –
Cc1c(COc2cc(OCc3cccc(C#N)c3)c(CNC(C)(C)C(=O)O)cc2Cl)cccc1-c1ccncc1 | > 100 nM | IC50 [7]: > 100 nM

From ChEMBL document CHEMBL4619786, “Discovery of Novel Resorcinol Dibenzyl Ethers Targeting the Programmed Cell Death-1/Programmed Cell Death-Ligand 1 Interaction as Potential Anticancer Agents” (J Med Chem, 2020)
